This test deals with patients with mild to moderate Alzheimer's Disease. Put plainly: Phase IIa trial: ADAS-Cog. It is filed as in vivo, human. To be noted: ITT. The protocol:
Exploratory outcome evaluations involved the assessment of cognitive and clinical function (Table 4). […] Items from the Neurological Testing Battery (NTB), together with the ADAS-Cog 13, Spatial Navigation Test (AMUNET) were performed at Baseline, Week 12 and Week 26 (Visits 2, 4 and 5). While the MMSE was used primarily as a screening and baseline disease staging tool, its repeated administration at Week 26 provided an additional exploratory cognitive outcome measure. The Geriatric Depression Scale (GDS) was assessed at each Visit (Screening, Baseline, Week 4, 12, 26: Visits 1-5) and the Clinical Global Impression test (CGI) with Severity was assessed at Screening (Visit 1) and then the Improvement was subsequently assessed at Weeks 12 and 26 (Visits 4 and 5). For each test, whether categorical or numeric, all raw scores were considered interval in nature. The change from Screening (Week −8) or Baseline (Week 0) was therefore be derived for each patient. Actual values at each Visit and Changes from Screening/Baseline were summarized.
Alzheimer's Disease Assessment Scale-13 items (total score=85) is used as a parameter for exploratory outcome analysis. ADAS-cog is a psychometric instrument designed to evaluate the severity of cognitive and non-cognitive behavioral dysfunctions characteristic of people with AD. The cognitive portion assesses memory, language and praxis functions. Most items are rated on a scale of 0 to 5, where 0 indicates no impairment and 1 to 5 indicates very mild (1), mild (2), moderate (3), moderately severe (4) or severe impairment (5) respectively. Other items are rated on the presence or absence of a characteristic number of errors or severity of errors. The total scores from the ADAS-cog sub-scales range from 0 (no impairment) to 85 (errors in all sub-tests).
A positive (i.e., increasing) change of the score indicates cognitive worsening.
ADAS-Cog was assessed at Visits 2, 4 and 5, as well as at the early discontinuation Visit, if applicable.

SMILES strings stand for the structures.

With `CC[C@H](C)[C@H](N)C(=O)NCCN1CCOCC1` [LM11A-31-BHS, Tris[(2S,3S)-2-amino-3-methyl-N-(2-morpholinoethyl)pentanamide]tetra(monohydrogensulfate), monosulfate], the “progression compared to placebo in the LS mean ADAS-cog-13 score, increased by” value (200 mg group, 26-week treatment period, not statistically significant) is recorded as 7.1%. Moreover, where the note is “200 mg group, 26 weeks”, the “ADAS-cog-6 score progression compared to placebo, increased by” value is given as 7.1% and the “progression compared to placebo of the LS mean ADAS-cog-11 score, decreased by” value turned out to be 9.8%. Also, the “progression compared to placebo in the LS mean ADAS-cog-13 score, decreased by” value (400 mg group, 26-week treatment period, not statistically significant) is 35.3%. Besides, for the setting “400 mg group, 26 weeks”, the “ADAS-cog-6 score progression compared to placebo, decreased by” value was determined as 31.4% and the “progression compared to placebo of the LS mean ADAS-cog-11 score, decreased by” value is 42.7%.

The record behind these values is US20260137692A1, “METHODS AND COMPOSITIONS FOR TREATING AND MANAGING ALZHEIMER'S DISEASE” (PHARMATROPHIX, INC., priority 2024, published 2026).
